Here are results for one molecule from patent US5739127A, “2,4'-bridged bis-2,4-diaminoquinazolines” (Bayer Aktiengesellschaft, priority 1996, dated 1998).

The Ki is the dissociation constant of the complex between target and ligand, obtained from inhibition or displacement. A lower Ki goes with higher affinity.

The test has as its target apamine binding sites (apamine-sensitive potassium channels), bovine cerebral membrane. Nature of the test: Binding of 125I-apamine to bovine cerebral membrane. The note with it: 30 pM 125I-apamine, bovine (calf) hippocampus membranes, 200 μg membrane protein, 60 min on ice. The procedure:
The compounds according to the invention are ligands for apamine-sensitive potassium channels. This can be shown by studying the affinity for apamine binding sites, e.g. in bovine cerebral membranes.
1) Binding of^125 I-apamine to bovine cerebral membrane
Calf brains were obtained from the local abattoir. The hippocampus was prepared on ice and a membrane suspension was made up by homogenization twice in buffer (100 mM Tris-HCl, KCl 5 mM, pH 7.4) and centrifugation at 43,000×g. In a total volume of 500 μl, the incubation mixture contained 200 μg of membrane protein, 30 pM ^125 I-apamine and test substances in the concentration range 1×10^-9 to 1×10^-4 M. The non-specific binding of ^125 I-apamine was determined in the presence of 1×10^-7 M unlabelled apamine.
After preincubation for 30 rain at room temperature (test substances and membrane homogenate), the samples were placed on ice for 10 min before the radioligand was added. The main incubation time was 60 min on ice. When the reaction time had elapsed, an excess of ice-cooled incubation buffer was added to each sample and the mixture was filtered with suction through cellulose acetate/nitrate membrane filters. The amount of bound ^125 I-apamine was measured with a gamma counter.

For `NC(=O)C1CCCN(c2nc(N3CCC(CNc4nc(N5CCCC5)nc5ccccc45)CC3)nc3ccccc23)C1` (stereo not shown) [Example 5], the Ki amounted to 0.15 µM.
